Results: patent US12018021B2 (UCB Biopharma SRL, priority 2018, dated 2024)

molecular target: IgE-Tb / FcεRIα-Y131A-AF488 (Homo sapiens, UniProt P01854); experiment: IgE-Tb / FcεRIα-Y131A-AF488 FRET assay (protocol for examples 1 to 233); type: binding; conditions: examples 1 to 233: 5 nM IgE-Tb, 25 nM FcεRIα-Y131A-AF488, incubated 2 hours at room temperature; read-out: Y131A FRET IC50 range
Summary of the method: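 Compounds (top final concentration usually 10 μM, 3-fold, 10 points, 2% DMSO) incubated 2 h at room temperature with IgE-Tb (5 nM) and FcεRIα-Y131A-AF488 (25 nM). Background from 200 nM unlabelled receptor subtracted; FRET ratio 520/495 nm after 330 nm excitation gave percent inhibition, fitted four-parameter for IC50.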

Chain of IgE-Tb / FcεRIα-Y131A-AF488 (P01854 1-427 limits assumed, stated change not applied): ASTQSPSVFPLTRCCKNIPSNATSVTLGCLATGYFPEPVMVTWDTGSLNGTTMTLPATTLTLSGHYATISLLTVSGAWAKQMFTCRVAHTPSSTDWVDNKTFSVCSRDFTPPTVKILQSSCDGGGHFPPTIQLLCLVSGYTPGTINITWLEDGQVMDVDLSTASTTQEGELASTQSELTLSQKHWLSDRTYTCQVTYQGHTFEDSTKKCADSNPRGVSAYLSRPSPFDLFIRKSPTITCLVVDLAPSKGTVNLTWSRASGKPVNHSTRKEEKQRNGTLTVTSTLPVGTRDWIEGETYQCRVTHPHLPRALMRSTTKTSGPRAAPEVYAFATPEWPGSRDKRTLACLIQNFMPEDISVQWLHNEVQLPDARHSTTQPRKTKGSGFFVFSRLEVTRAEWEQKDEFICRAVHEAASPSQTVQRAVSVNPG

| Structure (SMILES) | IC50 |
| --- | --- |
| O=C(NCC1CC1)c1c(NC(=O)C2CC2)sc2c1CC(C(=O)N1CCCC1)CC2 (centres unmarked) [Example 73, 2-(Cyclopropanecarbonylamino)-N-(cyclopropylmethyl)-5-(pyrrolidine-1-carbonyl)-4,5,6,7-tetrahydrobenzothiophene-3-carboxamide] | 1 to 10 µM |
| CC1(O)CCc2sc(NC(=O)C3CC3)c(C(=O)NCC3CC3)c2C1 (centres unmarked) [Example 74, 2-(Cyclopropanecarbonylamino)-N-(cyclopropylmethyl)-5-hydroxy-5-methyl-6,7-dihydro-4H-benzothiophene-3-carboxamide] | 10 to 50 µM |
| O=C(Nc1sc2c(c1C(=O)N1CC[C@@H](F)C1)CCCC2)C1CC1 [Example 75, N-[3-[(3R)-3-Fluoropyrrolidine-1-carbonyl]-4,5,6,7-tetrahydrobenzothiophen-2-yl]cyclopropanecarboxamide] | 1 to 10 µM |
| O=C(Nc1sc2c(c1C(=O)N1CC(F)C1)CCCC2)C1CC1 [Example 76, N-[3-(3-Fluoroazetidine-1-carbonyl)-4,5,6,7-tetrahydrobenzothiophen-2-yl]cyclopropanecarboxamide] | 1 to 10 µM |
| COC1CN(C(=O)c2c(NC(=O)C3CC3)sc3c2CCCC3)C1 [Example 77] | 1 to 10 µM |
| O=C(Nc1sc2c(c1C(=O)N1CCCCC1)CCCC2)C1CC1 [Example 78, N-[3-(Piperidine-1-carbonyl)-4,5,6,7-tetrahydrobenzothiophen-2-yl]cyclopropanecarboxamide] | 1 to 10 µM |
| CNC(=O)c1c(NC(=O)C2CC2)sc2c1CCCC2O (centres unmarked) [Example 79, 2-(Cyclopropanecarbonylamino)-7-hydroxy-N-methyl-4,5,6,7-tetrahydrobenzothiophene-3-carboxamide] | 10 to 50 µM |
| CC1Cc2c(sc(NC(=O)C3CC3)c2C(=O)NCC2CC2)C(C)C1 (centres unmarked) [Example 81, 2-(Cyclopropanecarbonylamino)-N-(cyclopropylmethyl)-5,7-dimethyl-4,5,6,7-tetrahydrobenzothiophene-3-carboxamide] | 1 to 10 µM |
| CC1CCc2sc(NC(=O)C3CC3)c(C(=O)NCC3CC3)c2C1 (centres unmarked) [Example 82, 2-(Cyclopropanecarbonylamino)-N-(cyclopropylmethyl)-5-methyl-4,5,6,7-tetrahydrobenzothiophene-3-carboxamide] | 1 to 10 µM |
| CC1(C)CCc2sc(NC(=O)C3CC3)c(C(=O)NCC3CC3)c2C1 [Example 84, 2-(Cyclopropanecarbonylamino)-N-(cyclopropylmethyl)-5,5-dimethyl-6,7-dihydro-4H-benzothiophene-3-carboxamide] | 1 to 10 µM |
| CC1CC(=O)c2sc(NC(=O)C3CC3)c(C(=O)NCC3CC3)c2C1 (centres unmarked) [Example 85, 2-(Cyclopropanecarbonylamino)-N-(cyclopropylmethyl)-5-methyl-7-oxo-5,6-dihydro-4H-benzothiophene-3-carboxamide] | 1 to 10 µM |
| O=C(NCC1CC1)c1c(NC(=O)C2CC2)sc2c1CC1(CC2)OCCO1 [Example 86, 2′-(Cyclopropanecarbonylamino)-N-(cyclopropylmethyl)spiro[1,3-dioxolane-2,5′-6,7-dihydro-4H-benzothiophene]-3′-carboxamide] | < 1 µM |
| CC(C)C(=O)Nc1sc2c(c1C(=O)NCC1CC1)CCCC2 [Example 87, N-(Cyclopropylmethyl)-2-(2-methylpropanoylamino)-4,5,6,7-tetrahydrobenzothiophene-3-carboxamide] | 10 to 50 µM |
| O=C(NCC1CC1)c1c(NC(=O)C2CCC2)sc2c1CCCC2 [Example 88, 2-(Cyclobutanecarbonylamino)-N-(cyclopropylmethyl)-4,5,6,7-tetrahydrobenzothiophene-3-carboxamide] | 10 to 50 µM |
| CC1CCc2sc(NC(=O)C3CC3)c(C(=O)NCC3CC3)c2C1C (centres unmarked) [Example 89, 2-(Cyclopropanecarbonylamino)-N-(cyclopropylmethyl)-4,5-dimethyl-4,5,6,7-tetrahydrobenzothiophene-3-carboxamide] | 1 to 10 µM |
| O=C1NC(=O)C2(CCc3sc(NC(=O)C4CC4)c(C(=O)NCC4CC4)c3C2)N1 (centres unmarked) [Example 92, 2-(Cyclopropanecarbonylamino)-N-(cyclopropylmethyl)-2′,5′-dioxo-spiro[6,7-dihydro-4H-benzothiophene-5,4′-imidazolidine]-3-carboxamide] | 1 to 10 µM |

| Structure (SMILES) | IC50 |
| --- | --- |
| O=C(OCC1CC1)c1c(NC(=O)C2CC2)sc2c1CC(NC(=S)Nc1cccnc1)CC2 (centres unmarked) [Example 93, Cyclopropylmethyl 2-(cyclopropanecarbonylamino)-5-(3-pyridylcarbamothioylamino)-4,5,6,7-tetrahydrobenzothiophene-3-carboxylate] | 1 to 10 µM |
| O=C(OCC1CC1)c1c(NC(=O)C2CC2)sc2c1CC(n1cnnc1Nc1cccnc1)CC2 (centres unmarked) [Example 94, Cyclopropylmethyl 2-(cyclopropanecarbonylamino)-5-[3-(3-pyridylamino)-1,2,4-triazol-4-yl]-4,5,6,7-tetrahydrobenzothiophene-3-carboxylate] | < 1 µM |
| CC(C)(C)OC(=O)NC1CCCc2c1sc(NC(=O)C1CC1)c2C(=O)NCC1CC1 (centres unmarked) [Example 97, tert-Butyl N-[2-(cyclopropanecarbonylamino)-3-(cyclopropylmethylcarbamoyl)-4,5,6,7-tetrahydrobenzothiophen-7-yl]carbamate] | 1 to 10 µM |
| CCNC(=O)C1CCCc2c1sc(NC(=O)C1CC1)c2C(=O)NCC1CC1 (centres unmarked) [Example 98, 2-(Cyclopropanecarbonylamino)-N3-(cyclopropylmethyl)-N7-ethyl-4,5,6,7-tetrahydrobenzothiophene-3,7-dicarboxamide] | 10 to 50 µM |
| O=C(NCC1CC1)c1c(NC(=O)C2CC2)sc2c1CC(c1cc[nH]n1)CC2 (centres unmarked) [Example 100, 2-(Cyclopropanecarbonylamino)-N-(cyclopropylmethyl)-5-(1H-pyrazol-3-yl)-4,5,6,7-tetrahydrobenzothiophene-3-carboxamide] | < 1 µM |
| CCOC(=O)c1c(NC(=O)C2CC2)sc2c1CCCC2O (centres unmarked) [Example 103, Ethyl 2-(cyclopropanecarbonylamino)-7-hydroxy-4,5,6,7-tetrahydrobenzothiophene-3-carboxylate] | 10 to 50 µM |
| N#Cc1ncn([C@H]2CCc3sc(NC(=O)C4CC4)c(C(=O)NCC4CC4)c3C2)c1N [Example 104, (5S)-5-(5-Amino-4-cyano-imidazol-1-yl)-2-(cyclopropanecarbonylamino)-N-(cyclopropylmethyl)-4,5,6,7-tetrahydrobenzothiophene-3-carboxamide] | < 1 µM |
| Cc1cc(Nc2nncn2[C@H]2CCc3sc(NC(=O)C4CC4)c(C(=O)NCC4CC4)c3C2)n(C)n1 [Example 106, (5S)-2-(Cyclopropanecarbonylamino)-N-(cyclopropylmethyl)-5-[3-[(2,5-dimethylpyrazol-3-yl)amino]-1,2,4-triazol-4-yl]-4,5,6,7-tetrahydrobenzothiophene-3-carboxamide] | < 1 µM |
| Cc1cc(-n2cnnc2N[C@H]2CCc3sc(NC(=O)C4CC4)c(C(=O)NCC4CC4)c3C2)n(C)n1 [Example 107, (5S)-2-(Cyclopropanecarbonylamino)-N-(cyclopropylmethyl)-5-[[4-(2,5-dimethylpyrazol-3-yl)-1,2,4-triazol-3-yl]amino]-4,5,6,7-tetrahydrobenzothiophene-3-carboxamide] | 1 to 10 µM |
| Cc1cc(Nc2nncn2[C@H]2CCc3sc(NC(=O)C4CC4)c(C(=O)NCC(C)C)c3C2)n(C)n1 [Example 108, (5S)-2-(Cyclopropanecarbonylamino)-5-[3-[(2,5-dimethylpyrazol-3-yl)amino]-1,2,4-triazol-4-yl]-N-isobutyl-4,5,6,7-tetrahydrobenzothiophene-3-carboxamide] | < 1 µM |
| NC1CCc2sc(NC(=O)C3CC3)c(C(=O)NCC3CC3)c2C1 (centres unmarked) [Example 109, 5-Amino-2-(cyclopropanecarbonylamino)-N-(cyclopropylmethyl)-4,5,6,7-tetrahydrobenzothiophene-3-carboxamide] | 10 to 50 µM |
| N#CN=C(Nc1ccccc1)NC1CCc2sc(NC(=O)C3CC3)c(C(=O)NCC3CC3)c2C1 (centres unmarked) [Example 110, 5-[[N′-Cyano-N-phenyl-carbamimidoyl]amino]-2-(cyclopropanecarbonylamino)-N-(cyclopropylmethyl)-4,5,6,7-tetrahydrobenzothiophene-3-carboxamide] | < 1 µM |
| CC1(CNc2nncn2[C@H]2CCc3sc(NC(=O)C4CC4)c(C(=O)NCC4CC4)c3C2)CC1 [Example 112, (5S)-2-(Cyclopropanecarbonylamino)-N-(cyclopropylmethyl)-5-[3-[(1-methylcyclopropyl)methylamino]-1,2,4-triazol-4-yl]-4,5,6,7-tetrahydrobenzothiophene-3-carboxamide] | < 1 µM |
| CC(=O)Nc1cncn1[C@H]1CCc2sc(NC(=O)C3CC3)c(C(=O)NCC3CC3)c2C1 [Example 113, (5S)-5-(5-Acetamidoimidazol-1-yl)-2-(cyclopropanecarbonylamino)-N-(cyclopropylmethyl)-4,5,6,7-tetrahydrobenzothiophene-3-carboxamide] | < 1 µM |
| O=C(NCC1CC1)c1c(NC(=O)C2CC2)sc2c1C[C@@H](n1cnnc1Nc1ccncc1)CC2 [Example 115, (5S)-2-(Cyclopropanecarbonylamino)-N-(cyclopropylmethyl)-5-[3-(4-pyridylamino)-1,2,4-triazo-4-yl]-4,5,6,7-tetrahydrobenzothiophene-3-carboxamide] | < 1 µM |
| COc1ccc(NC(=NC#N)NC2CCc3sc(NC(=O)C4CC4)c(C(=O)NCC4CC4)c3C2)cc1OC (centres unmarked) [Example 116, 5-[[N′-Cyano-N-(3,4-dimethoxyphenyl)carbamimidoyl]amino]-2-(cyclopropanecarbonylamino)-N-(cyclopropylmethyl)-4,5,6,7-tetrahydrobenzothiophene-3-carboxamide] | < 1 µM |
